Series [1] in a line: Whole cell homogenate stability. Format: in vitro ADME. The settings on record: 1 μM peptide, 37 °C, up to 22 h. The procedure:
Peptides at a concentration of 1 μM were incubated at 37 °C with HCT116 whole cell homogenates prepared from 1 million lysed cells/mL. The reaction was stopped at 0, 1, 2, 4, and 22 h with an organic solvent followed by centrifugation. The resulting supernatant was injected into LC/MS for detection of the tested peptide. The remaining percentage of each compound was normalized to the 0 h amount and reported. As a positive control, we used the ONEG peptide with the sequence […] [28].

The target of the next series is T1, human Mdm2 1–125 (Homo sapiens, UniProt Q00987).
T1 construct: GST (N); His6 (internal); TEV cleavage site ENLYFQG (internal); made in house; host or cells: Escherichia coli BL21 (DE3) Rosetta T1R
T1 sequence (Q00987 with tags, fused parts or gaps): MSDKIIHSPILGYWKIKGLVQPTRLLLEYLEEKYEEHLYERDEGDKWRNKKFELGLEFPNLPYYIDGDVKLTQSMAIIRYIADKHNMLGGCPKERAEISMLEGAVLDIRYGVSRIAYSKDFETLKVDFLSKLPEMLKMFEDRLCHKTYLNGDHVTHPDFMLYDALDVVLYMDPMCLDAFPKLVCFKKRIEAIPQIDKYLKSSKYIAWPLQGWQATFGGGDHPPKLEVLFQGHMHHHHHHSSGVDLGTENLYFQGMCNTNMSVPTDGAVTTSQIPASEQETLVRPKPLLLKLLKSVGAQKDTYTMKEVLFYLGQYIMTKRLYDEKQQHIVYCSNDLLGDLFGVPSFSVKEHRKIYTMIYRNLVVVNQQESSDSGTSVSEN
In words: Mdm2 binding assay (competitive fluorescence anisotropy/polarization).

The nature of series [2]: Circular dichroism (CD) α-helicity. Format: physicochemical. The settings on record: for Helicity (%): CD of free peptide, 25 °C, 1 mM Hepes pH 7.4, 5% methanol. In short, it runs like this: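 Peptide dried from methanol, reconstituted to 1 mM in 1 mM Hepes pH 7.4 with 5% methanol; concentration by A280. CD spectra 300–190 nm, 0.2 cm path, 25 °C, duplicates; converted to mean residue ellipticity and deconvoluted for secondary structure.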
On the technique in general: Circular dichroism is widely used to follow secondary structure.

The test system of series [3] is p53 responsive β-lactamase reporter in HCT116 cells. The series can be described thus: p53 beta-lactamase reporter gene cellular functional assay. Format: cell-based. The settings on record: p53 reporter assay, HCT116, read-out: Cellular (µM), cellular activity (EC50). In short, it runs like this:
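HCT116 cells stably carrying a p53-responsive β-lactamase reporter seeded 8000/well overnight, then switched to Opti-MEM with 0% or 10% FBS for compound treatment at 0.5% DMSO final. β-Lactamase activity measured with ToxBLAzer Dual Screen on a multiplate reader.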
Background: In a reporter assay the amount or activity of a reporter protein is the signal.

Setting [4] is: Table 1, competitive fluorescence polarization, read-out: Mdm2 (nM), Mdm2 binding (Kd).
[5] abbreviates: Table 2, competitive fluorescence polarization, read-out: Mdm2 (nM), Mdm2 binding (Kd).

Several values for one entry are separate records, joined by “and”; a condition that tells them apart may be missing. Equal entries are not always repeated. Where two headings read alike, the source gives them in different places. Bridge positions count the residues as written; N and C are the ends. Square brackets hold non-standard residues; d marks the D form. Peptide text beside a SMILES is read from it. R8 = C=CCCCCCC[C@@](C)(N)C(=O)O; Cba = N[C@@H](CC1CCC1)C(=O)O; S5 = C=CCCC[C@](C)(N)C(=O)O Where only a bound is given, the exact number is not on record here.

For `CC(=O)N[C@@H](CC(C)C)C(=O)N[C@H](C(=O)N[C@@H](Cc1ccccc1)C(=O)NC(C)(C)C(=O)N[C@H](CCC(=O)O)C(=O)N[C@@H](Cc1ccc(O)cc1)C(=O)N[C@@H](Cc1c[nH]c2ccccc12)C(=O)N[C@@H](CCC(N)=O)C(=O)N[C@@H](CC(C)C)C(=O)N[C@@H](CC1CCC1)C(=O)NC(C)(C)C(=O)N[C@@H](CO)C(=O)N[C@@H](C)C(=O)N[C@@H](C)C(N)=O)[C@@H](C)O` [Linear E5(D-Glu)], the “stability in whole cell homogenate” value in series [1] is listed as “decreased stability”. The Kd (in general, the equilibrium constant for the complex coming apart) at human Mdm2 1–125 (setting [4]) is 135 nM. The “Helicity (%)” value in series [2] (Table 1) is 21.4%. Also, the EC50 – broadly, the concentration needed to bring the measured effect to its halfway point – in series [3] (Table 1) was above 50 µM.
Regarding `CC(=O)N[C@@H](CC(C)C)C(=O)N[C@H](C(=O)N[C@@H](Cc1ccccc1)C(=O)NC(C)(C)C(=O)N[C@@H](CCC(=O)O)C(=O)N[C@@H](Cc1ccc(O)cc1)C(=O)N[C@@H](Cc1c[nH]c2ccccc12)C(=O)N[C@@H](CCC(N)=O)C(=O)N[C@@H](CC(C)C)C(=O)N[C@@H](CC1CCC1)C(=O)NC(C)(C)C(=O)N[C@@H](CO)C(=O)N[C@@H](C)C(=O)N[C@@H](C)C(N)=O)[C@@H](C)O` [Linear Parent (MP-189), Ac–Leu–Thr–Phe–Aib–Glu–Tyr–Trp–Gln–Leu–Cba–Aib–Ser–Ala–Ala–NH2], the “stability in whole cell homogenate” value in series [1] is reported as “moderate stabilities”. Further, at human Mdm2 1–125 (setting [4]), the Kd amounted to 43.1 nM. Besides, the “Helicity (%)” value in series [2] (Table 1) amounted to 35.3%. Also, the EC50 in series [3] (Table 1) was determined as 33.5 µM.
As to `CC(=O)N[C@@H](CC(C)C)C(=O)N[C@H](C(=O)N[C@H](Cc1ccccc1)C(=O)N[C@]1(C)CCCCCCC=CCCC[C@@](C)(C(=O)N[C@@H](CO)C(=O)N[C@@H](C)C(=O)N[C@@H](C)C(N)=O)NC(=O)[C@H](CC2CCC2)NC(=O)[C@H](CC(C)C)NC(=O)[C@H](CCC(N)=O)NC(=O)[C@H](Cc2c[nH]c3ccccc23)NC(=O)[C@H](Cc2ccc(O)cc2)NC(=O)[C@H](CCC(=O)O)NC1=O)[C@@H](C)O` [F3(D-Phe)], the Kd on human Mdm2 1–125 (setting [4]) turned out to be 6480 nM. In series [2] (Table 1), the “Helicity (%)” value is 51.8%. Moreover, the EC50 in series [3] (Table 1) is above 50 µM.
Turning to `CC(=O)N[C@@H](CC(C)C)C(=O)N[C@H](C(=O)N[C@@H](Cc1ccccc1)C(=O)N[C@]1(C)CCCCCCC=CCCC[C@@](C)(C(=O)N[C@H](CO)C(=O)N[C@@H](C)C(=O)N[C@@H](C)C(N)=O)NC(=O)[C@H](CC2CCC2)NC(=O)[C@H](CC(C)C)NC(=O)[C@H](CCC(N)=O)NC(=O)[C@H](Cc2c[nH]c3ccccc23)NC(=O)[C@H](Cc2ccc(O)cc2)NC(=O)[C@H](CCC(=O)O)NC1=O)[C@@H](C)O` [S12(D-Ser)], the Kd at human Mdm2 1–125 (setting [4]) came out at 8.6 nM. In series [2] (Table 1), the “Helicity (%)” value came to 41.2%. Moreover, in series [3] (Table 1), the EC50 stood at 1.2 µM.
Consider `CC(=O)N[C@@H](CCCCN=[N+]=[N-])C(=O)NCCC(=O)N[C@@H](CC(C)C)C(=O)N[C@H](C(=O)N[C@@H](Cc1ccccc1)C(=O)N[C@]1(C)CCCCCCC=CCCC[C@@](C)(C(=O)NCC(=O)N[C@@H](C)C(=O)N[C@@H](C)C(N)=O)NC(=O)[C@H](CC2CCC2)NC(=O)[C@H](CCC(N)=O)NC(=O)[C@H](C)NC(=O)[C@H](Cc2c[nH]c3ccccc23)NC(=O)[C@H](Cc2ccc(O)cc2)NC(=O)[C@H](CCC(=O)O)NC1=O)[C@@H](C)O` [Peptide S12G], for which the Kd at human Mdm2 1–125 was 18.9 nM. The “Helicity (%)” value in series [2] (Table 2) is recorded as 46.5%. Further, the EC50 in series [3] (Table 2) was found to be 0.65 µM.
With `CC(=O)N[C@@H](CC(C)C)C(=O)N[C@H](C(=O)N[C@@H](Cc1ccccc1)C(=O)N[C@]1(C)CCCCCCC=CCCC[C@@](C)(C(=O)N[C@@H](C)C(=O)N[C@@H](C)C(=O)N[C@@H](C)C(N)=O)NC(=O)[C@H](CC2CCC2)NC(=O)[C@H](CC(C)C)NC(=O)[C@H](CCC(N)=O)NC(=O)[C@H](Cc2c[nH]c3ccccc23)NC(=O)[C@H](Cc2ccc(O)cc2)NC(=O)[C@H](CCC(=O)O)NC1=O)[C@@H](C)O` [Peptide S12A] (Ac-LTF[R8]EYWQL[Cba][S5]AAA-NH2; staple 4-11), on human Mdm2 1–125 (setting [4]), the Kd came to 20.4 nM. In series [2] (Table 1), the “Helicity (%)” value was 36.5%. In addition, in series [3] (Table 1), the 50% effective concentration (EC50) is 0.35 µM.
Turning to `CC(=O)N[C@@H](CC(C)C)C(=O)N[C@H](C(=O)N[C@@H](C)C(=O)N[C@]1(C)CCCCCCC=CCCC[C@@](C)(C(=O)N[C@@H](CO)C(=O)N[C@@H](C)C(=O)N[C@@H](C)C(N)=O)NC(=O)[C@H](CC2CCC2)NC(=O)[C@H](CC(C)C)NC(=O)[C@H](CCC(N)=O)NC(=O)[C@H](Cc2c[nH]c3ccccc23)NC(=O)[C@H](Cc2ccc(O)cc2)NC(=O)[C@H](CCC(=O)O)NC1=O)[C@@H](C)O` [Peptide F3A] (Ac-LTA[R8]EYWQL[Cba][S5]SAA-NH2; staple 4-11), the Kd at human Mdm2 1–125 (setting [4]) was 3600 nM. Besides, in series [2] (Table 1), the “Helicity (%)” value was determined as 48.4%. For the same compound, in series [3] (Table 1), the EC50 came to 37 µM.
Taken in the same sequence, the figures for `CC(=O)N[C@@H](C)C(=O)N[C@H](C(=O)N[C@@H](Cc1ccccc1)C(=O)N[C@]1(C)CCCCCCC=CCCC[C@@](C)(C(=O)N[C@@H](CO)C(=O)N[C@@H](C)C(=O)N[C@@H](C)C(N)=O)NC(=O)[C@H](CC2CCC2)NC(=O)[C@H](CC(C)C)NC(=O)[C@H](CCC(N)=O)NC(=O)[C@H](Cc2c[nH]c3ccccc23)NC(=O)[C@H](Cc2ccc(O)cc2)NC(=O)[C@H](CCC(=O)O)NC1=O)[C@@H](C)O` [Peptide L1A] (Ac-ATF[R8]EYWQL[Cba][S5]SAA-NH2; staple 4-11) were 17.6 nM, 53.3% and 0.5 µM.
Turning to `CC(=O)N[C@@H](CCCCN=[N+]=[N-])C(=O)NCCC(=O)N[C@@H](CC(C)C)C(=O)N[C@H](C(=O)N[C@@H](Cc1ccccc1)C(=O)N[C@]1(C)CCCCCCC=CCCC[C@@](C)(C(=O)N[C@@H](CO)C(=O)N[C@@H](C)C(=O)N[C@@H](C)C(N)=O)NC(=O)[C@H](CC2CCC2)NC(=O)CNC(=O)[C@H](C)NC(=O)[C@H](Cc2c[nH]c3ccccc23)NC(=O)[C@H](Cc2ccc(O)cc2)NC(=O)[C@H](CCC(=O)O)NC1=O)[C@@H](C)O` [Peptide Q9G], the Kd on human Mdm2 1–125 (setting [5]) came out at 42 nM. The “Helicity (%)” value in series [2] (Table 2) is on record as 38.8%. For the same compound, in series [3] (Table 2), the EC50 amounted to 0.68 µM.
For the compound `CC(=O)N[C@@H](CCCCN=[N+]=[N-])C(=O)NCCC(=O)NCC(=O)N[C@H](C(=O)N[C@@H](Cc1ccccc1)C(=O)N[C@]1(C)CCCCCCC=CCCC[C@@](C)(C(=O)N[C@@H](CO)C(=O)N[C@@H](C)C(=O)N[C@@H](C)C(N)=O)NC(=O)[C@H](CC2CCC2)NC(=O)[C@H](CCC(N)=O)NC(=O)[C@H](C)NC(=O)[C@H](Cc2c[nH]c3ccccc23)NC(=O)[C@H](Cc2ccc(O)cc2)NC(=O)[C@H](CCC(=O)O)NC1=O)[C@@H](C)O` [Peptide L1G], the Kd on human Mdm2 1–125 (setting [5]) is 22.1 nM. Also, the “Helicity (%)” value in series [2] (Table 2) is given as 44.6%. Further, in series [3] (Table 2), the EC50 stood at 1.6 µM.
As for `CC(=O)N[C@@H](CCCCN=[N+]=[N-])C(=O)NCCC(=O)N[C@@H](CC(C)C)C(=O)N[C@H](C(=O)N[C@@H](Cc1ccccc1)C(=O)N[C@]1(C)CCCCCCC=CCCC[C@@](C)(C(=O)N[C@@H](CO)C(=O)N[C@@H](C)C(=O)N[C@@H](C)C(N)=O)NC(=O)[C@H](CC2CCC2)NC(=O)[C@@H]2CCCN2C(=O)[C@H](C)NC(=O)[C@H](Cc2c[nH]c3ccccc23)NC(=O)[C@H](Cc2ccc(O)cc2)NC(=O)[C@H](CCC(=O)O)NC1=O)[C@@H](C)O` [Peptide Q9P], the Kd on human Mdm2 1–125 (setting [5]) was found to be 77.1 nM. Besides, the “Helicity (%)” value in series [2] (Table 2) came out at 27.4%. For the same compound, the “α-helicity by CD” value in series [2] (listed as Pro^9) is < 30% and 27.4%. In addition, the EC50 in series [3] (Table 2) turned out to be 3.1 µM.
As for `CC(=O)N[C@H](CC(C)C)C(=O)N[C@H](C(=O)N[C@@H](Cc1ccccc1)C(=O)NC(C)(C)C(=O)N[C@@H](CCC(=O)O)C(=O)N[C@@H](Cc1ccc(O)cc1)C(=O)N[C@@H](Cc1c[nH]c2ccccc12)C(=O)N[C@@H](CCC(N)=O)C(=O)N[C@@H](CC(C)C)C(=O)N[C@@H](CC1CCC1)C(=O)NC(C)(C)C(=O)N[C@@H](CO)C(=O)N[C@@H](C)C(=O)N[C@@H](C)C(N)=O)[C@@H](C)O` [Linear L1(D-Leu)], on human Mdm2 1–125 (setting [4]), the Kd amounted to 277 nM. Also, the “Helicity (%)” value in series [2] (Table 1) is given as 37.2%. Moreover, the EC50 in series [3] (Table 1) is above 50 µM.

(Values after article PMC6632053, “Incorporation of Putative Helix-Breaking Amino Acids in the Design of Novel Stapled Peptides: Exploring Biophysical and Cellular Permeability Properties” (Molecules, 2019).)
